Target: MAPK14 (UniProt Q16539)
Sequence (Q16539 whole entry, looked up): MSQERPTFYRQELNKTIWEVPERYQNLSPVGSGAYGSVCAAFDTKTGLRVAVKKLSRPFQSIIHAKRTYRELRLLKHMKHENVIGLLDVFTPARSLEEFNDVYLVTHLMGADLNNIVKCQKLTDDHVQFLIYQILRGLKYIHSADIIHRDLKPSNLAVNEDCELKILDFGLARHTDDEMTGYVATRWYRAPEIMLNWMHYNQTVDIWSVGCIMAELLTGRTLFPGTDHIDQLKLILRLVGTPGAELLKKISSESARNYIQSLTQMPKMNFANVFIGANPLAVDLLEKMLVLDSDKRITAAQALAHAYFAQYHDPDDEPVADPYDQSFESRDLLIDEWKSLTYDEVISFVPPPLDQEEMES

IC50, < 50 µM:
C[C@@H](CO)n1cnc(-c2ccc(F)cc2)c1-c1ccnc(Oc2ccc(Cl)cc2)n1, CC[C@H](CO)n1cnc(-c2ccc(F)cc2)c1-c1ccnc(Oc2ccc(C)cc2)n1, C[C@H](CO)n1cnc(-c2ccc(F)cc2)c1-c1ccnc(Oc2ccc(F)cc2)n1, C[C@H](CCN1CCOCC1)n1cnc(-c2ccc(F)cc2)c1-c1ccnc(Oc2ccccc2)n1, Cc1ccc(Oc2nccc(-c3c(-c4ccc(F)cc4)ncn3[C@@H](C)CO)n2)cc1, OCC(CO)n1cnc(-c2ccc(F)cc2)c1-c1ccnc(Oc2ccccc2)n1, C[C@@H](CO)n1cnc(-c2ccc(F)cc2)c1-c1ccnc(Oc2ccc(F)cc2)n1, OC[C@H](c1ccccc1)n1cnc(-c2ccc(F)cc2)c1-c1ccnc(Oc2ccccc2)n1, CC[C@H](CO)n1cnc(-c2ccc(F)cc2)c1-c1ccnc(Oc2ccccc2)n1, Cc1ccc(Oc2nccc(-c3c(-c4ccc(F)cc4)ncn3C(CO)CO)n2)cc1, OC[C@@H](c1ccccc1)n1cnc(-c2ccc(F)cc2)c1-c1ccnc(Oc2ccccc2)n1, CC[C@H](CO)n1cnc(-c2ccc(F)cc2)c1-c1ccnc(Oc2ccc(Cl)cc2)n1, CC[C@@H](CO)n1cnc(-c2ccc(F)cc2)c1-c1ccnc(Oc2ccc(Cl)cc2)n1, OCC(CO)n1cnc(-c2ccc(F)cc2)c1-c1ccnc(Oc2ccc(F)cc2)n1, CC[C@@H](CO)n1cnc(-c2ccc(F)cc2)c1-c1ccnc(Oc2ccccc2)n1, CC[C@@H](CO)n1cnc(-c2ccc(F)cc2)c1-c1ccnc(Oc2ccc(C)cc2)n1

From the Kinase Knowledgebase extract (Sharma et al. 2016)
